Our source for the IC50 values is patent US11168073B2, “3,3-difluoroallylamines or salts thereof and pharmaceutical compositions comprising the same” (YUHAN CORPORATION, priority 2018, dated 2021).

The structures appear in SMILES notation. Counter-ions that a name gives are not always drawn. Like-named read-outs stand apart in the source and are kept apart here.

Common to all, as to format: biochemical
The target in test [1] is T1, recombinant human DAO (diamine oxidase) (Homo sapiens, UniProt P19801).
T1 construct: purchased R&D systems
T1 sequence (P19801 20-751): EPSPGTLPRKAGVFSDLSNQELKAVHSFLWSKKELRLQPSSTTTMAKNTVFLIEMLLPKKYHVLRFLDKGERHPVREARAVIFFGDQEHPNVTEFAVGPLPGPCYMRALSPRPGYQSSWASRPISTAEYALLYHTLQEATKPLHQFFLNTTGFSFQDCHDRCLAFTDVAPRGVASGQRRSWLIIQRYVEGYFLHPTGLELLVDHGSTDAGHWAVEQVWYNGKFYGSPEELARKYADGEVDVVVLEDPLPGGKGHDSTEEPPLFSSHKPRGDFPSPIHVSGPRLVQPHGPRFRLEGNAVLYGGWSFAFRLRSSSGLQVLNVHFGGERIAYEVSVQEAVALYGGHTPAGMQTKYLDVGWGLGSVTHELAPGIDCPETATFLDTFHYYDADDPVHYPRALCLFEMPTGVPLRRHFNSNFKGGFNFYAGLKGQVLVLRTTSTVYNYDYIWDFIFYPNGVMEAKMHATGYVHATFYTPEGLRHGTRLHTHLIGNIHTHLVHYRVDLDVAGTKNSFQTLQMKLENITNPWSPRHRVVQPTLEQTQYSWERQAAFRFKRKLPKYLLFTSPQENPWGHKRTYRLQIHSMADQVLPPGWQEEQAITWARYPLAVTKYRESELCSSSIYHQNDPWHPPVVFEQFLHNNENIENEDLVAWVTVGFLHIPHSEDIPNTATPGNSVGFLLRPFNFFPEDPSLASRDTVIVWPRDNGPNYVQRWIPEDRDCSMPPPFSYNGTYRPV
Kind of test: Activity evaluation on recombinant human DAO (Amplex Red/HRP-coupled assay, 1 mM putrescine substrate). The conditions noted are these: read-out: Inhibitory Activity (IC50, nM) DAO. The method, boiled down:
(§1)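 8-pt 1:3 dilution series, final DMSO <1%; 30 min 37 °C preincubation w/ enzyme, 50 mM Na phosphate pH 7.4; + 200 uM Amplex Red, 1 U/mL HRP, substrate (MAO-A tyramine 0.5 mM; MAO-B benzylamine 1 mM; DAO putrescine 1 mM); fluor. rate 544/590 nm, 1-2 h; 4-param IC50.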

Test [2] has as its target T2, recombinant human MAO-A (monoamine oxidase-A) (Homo sapiens, UniProt P21397).
T2 construct: purchased Sigma-Aldrich
T2 sequence (P21397 1-527): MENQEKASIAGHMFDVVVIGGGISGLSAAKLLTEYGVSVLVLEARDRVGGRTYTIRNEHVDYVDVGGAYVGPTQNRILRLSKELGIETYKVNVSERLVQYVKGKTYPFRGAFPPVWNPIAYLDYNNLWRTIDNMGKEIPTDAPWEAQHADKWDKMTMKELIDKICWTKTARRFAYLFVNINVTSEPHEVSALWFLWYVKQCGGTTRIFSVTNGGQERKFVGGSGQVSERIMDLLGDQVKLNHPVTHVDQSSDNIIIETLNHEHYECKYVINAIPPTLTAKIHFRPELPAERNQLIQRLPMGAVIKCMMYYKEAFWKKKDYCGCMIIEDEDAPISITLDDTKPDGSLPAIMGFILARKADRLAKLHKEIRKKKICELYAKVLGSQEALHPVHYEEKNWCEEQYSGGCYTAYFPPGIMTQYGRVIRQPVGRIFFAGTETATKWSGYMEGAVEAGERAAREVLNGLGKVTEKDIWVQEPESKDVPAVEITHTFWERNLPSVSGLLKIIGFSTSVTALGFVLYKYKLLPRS
Kind of test: Activity evaluation on recombinant human MAO-A (Amplex Red/HRP-coupled assay, 0.5 mM tyramine substrate). The conditions noted are these: read-out: Inhibitory Activity (IC50, nM) MAO-A. In short, it runs like this:
as §1

Test [3] has as its target T3, recombinant human VAP-1 (Homo sapiens, UniProt Q16853).
T3 construct: purchased R&D systems
T3 sequence (Q16853 1-763): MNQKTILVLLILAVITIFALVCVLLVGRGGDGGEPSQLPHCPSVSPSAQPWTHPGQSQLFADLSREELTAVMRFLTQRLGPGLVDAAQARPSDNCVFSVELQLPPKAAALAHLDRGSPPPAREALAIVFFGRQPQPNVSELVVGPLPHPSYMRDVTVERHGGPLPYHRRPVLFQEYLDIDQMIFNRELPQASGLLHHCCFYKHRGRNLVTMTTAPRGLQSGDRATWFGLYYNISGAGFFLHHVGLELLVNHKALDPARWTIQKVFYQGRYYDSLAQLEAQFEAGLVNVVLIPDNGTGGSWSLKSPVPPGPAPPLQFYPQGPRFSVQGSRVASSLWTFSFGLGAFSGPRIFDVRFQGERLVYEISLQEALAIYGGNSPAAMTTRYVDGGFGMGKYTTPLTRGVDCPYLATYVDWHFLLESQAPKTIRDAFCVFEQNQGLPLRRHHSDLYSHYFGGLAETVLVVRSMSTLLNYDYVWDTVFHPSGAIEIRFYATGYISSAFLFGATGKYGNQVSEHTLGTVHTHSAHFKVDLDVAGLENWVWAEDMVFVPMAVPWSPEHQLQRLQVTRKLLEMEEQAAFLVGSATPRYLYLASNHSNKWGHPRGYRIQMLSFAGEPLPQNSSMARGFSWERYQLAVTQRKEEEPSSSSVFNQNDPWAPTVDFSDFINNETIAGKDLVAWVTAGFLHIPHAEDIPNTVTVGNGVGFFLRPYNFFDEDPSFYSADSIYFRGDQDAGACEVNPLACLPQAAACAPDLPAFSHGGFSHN
Description: Activity evaluation on recombinant human VAP-1 (Amplex Red/HRP-coupled hydrogen peroxide assay, benzylamine substrate). The conditions noted are these: read-out: Inhibitory Activity (IC50, nM) human VAP-1. In short, it runs like this:
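Hydrogen peroxide from benzylamine (1 mM) oxidation by human recombinant VAP-1 detected via HRP-coupled Amplex Red (200 uM) fluorescence, kinetic over 1–2 h. Enzyme and compound preincubated 30 min at 37 °C, pH 7.4 phosphate; 8-point dose response, signal-rate decrease versus DMSO control fitted to four-parameter logistic for IC50.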

Test [4] has as its target T4, recombinant human MAO-B (monoamine oxidase-B) (Homo sapiens, UniProt P27338).
T4 construct: purchased Sigma-Aldrich
T4 sequence (P27338 1-520): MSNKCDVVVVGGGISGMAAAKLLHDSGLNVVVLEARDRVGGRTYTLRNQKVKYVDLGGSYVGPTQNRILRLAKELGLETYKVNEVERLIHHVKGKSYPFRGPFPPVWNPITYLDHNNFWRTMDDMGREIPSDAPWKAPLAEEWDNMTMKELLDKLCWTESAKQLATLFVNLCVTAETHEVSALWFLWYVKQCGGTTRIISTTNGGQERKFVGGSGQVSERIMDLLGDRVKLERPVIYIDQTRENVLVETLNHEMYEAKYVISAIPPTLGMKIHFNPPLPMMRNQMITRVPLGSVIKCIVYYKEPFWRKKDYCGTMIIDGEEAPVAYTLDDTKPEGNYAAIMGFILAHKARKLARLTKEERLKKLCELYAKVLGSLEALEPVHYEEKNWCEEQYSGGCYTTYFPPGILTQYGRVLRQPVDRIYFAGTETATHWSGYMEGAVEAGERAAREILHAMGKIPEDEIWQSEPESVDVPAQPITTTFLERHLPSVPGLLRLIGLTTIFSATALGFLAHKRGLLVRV
Kind of test: Activity evaluation on recombinant human MAO-B (Amplex Red/HRP-coupled assay, 1 mM benzylamine substrate). The conditions noted are these: read-out: Inhibitory Activity (IC50, nM) MAO-B. The method, boiled down:
as §1

[5] abbreviates: recombinant human VAP-1, 30 min preincubation at 37° C., 1 mM benzylamine.
Setting [6] is: recombinant human VAP-1, benzylamine substrate.

On to `NCC(Cn1ncn(Cc2ccc(-c3cccc(-c4cc[nH]n4)c3)s2)c1=O)=C(F)F` [Example 110, 2-[2-(aminomethyl)-3,3-difluoro-allyl]-4-[[5-[3-(1H-pyrazol-3-yl)phenyl]-2-thienyl]methyl]-1,2,4-triazol-3-one Trifluoroacetate], for which the IC50 in test [1] (1 mM putrescine) was more than 100000 nM; in test [2] (0.5 mM tyramine), more than 10000 nM; in test [3] (setting [5]), 1.3 nM; in test [4] (1 mM benzylamine) it was 8700 nM.
For the compound `CN(C)c1ccc(-c2csc(Cn3cnn(CC(CN)=C(F)F)c3=O)c2)cn1` [Example 149, 2-[2-(aminomethyl)-3,3-difluoro-allyl]-4-[[4-[6-(dimethylamino)-3-pyridyl]-2-thienyl]methyl]-1,2,4-triazol-3-one Trifluoroacetate], the IC50 is more than 10000 nM in test [1] (1 mM putrescine), more than 100000 nM in test [2] (0.5 mM tyramine), 0.6 nM in test [3] (setting [5]) and more than 100000 nM in test [4] (1 mM benzylamine).
Consider `CCn1cc(-c2ccc(-c3ccc(Cn4cnn(CC(CN)=C(F)F)c4=O)s3)cc2)cn1` [Example 286, 2-[2-(aminomethyl)-3,3-difluoro-allyl]-4-[[5-[4-(1-ethylpyrazol-4-yl)phenyl]-2-thienyl]methyl]-1,2,4-triazol-3-one Trifluoroacetate], for which the IC50 in test [1] (1 mM putrescine substrate) came out at 2480 nM; in test [2] (0.5 mM tyramine substrate), 2620 nM; in test [3] (setting [6]), 1.4 nM; in test [4] (1 mM benzylamine substrate), 3230 nM.
The matching figures for `Cc1cc(C#Cc2cnc3c(c2)NCCO3)cnc1-n1cnn(CC(CN)=C(F)F)c1=O` [Example 244, 2-[2-(aminomethyl)-3,3-difluoro-allyl]-4-[5-[2-(2,3-dihydro-1H-pyrido[2,3-b][1,4]oxazin-7-yl)ethynyl]-3-methyl-2-pyridyl]-1,2,4-triazol-3-one ditrifluoroacetate]: 9000 nM, more than 100000 nM, 0.8 nM and 37000 nM.
With `CS(=O)(=O)c1ccc(-c2cnc(-n3cnn(CC(CN)=C(F)F)c3=O)c(F)c2)cc1` [Example 82, 2-[2-(aminomethyl)-3,3-difluoro-allyl]-4-[3-fluoro-5-(4-methylsulfonylphenyl)-2-pyridyl]-1,2,4-triazol-3-one Trifluoroacetate], the IC50 was 13 nM in test [1] (1 mM putrescine), more than 100000 nM in test [2] (0.5 mM tyramine), 0.1 nM in test [3] (setting [5]) and 3700 nM in test [4] (1 mM benzylamine).
The matching figures for `NCC(Cn1ncn(CCc2ccc(-c3ccc4c(c3)OCO4)s2)c1=O)=C(F)F` [Example 177, 2-[2-(aminomethyl)-3,3-difluoro-allyl]-4-[2-[5-(1,3-benzodioxol-5-yl)-2-thienyl]ethyl]-1,2,4-triazol-3-one Trifluoroacetate]: 2500 nM, more than 100000 nM, 1.2 nM and 700 nM.
Turning to `Cc1cc(-c2ccc(N3CCNCC3)cc2)cnc1-n1cnn(CC(CN)=C(F)F)c1=O` [Example 69, 2-[2-(aminomethyl)-3,3-difluoro-allyl]-4-[3-methyl-5-(4-piperazin-1-ylphenyl)-2-pyridyl]-1,2,4-triazol-3-one Ditrifluoroacetate], the IC50 is more than 100000 nM in test [1] (1 mM putrescine), more than 100000 nM in test [2] (0.5 mM tyramine), 1.2 nM in test [3] (setting [5]) and more than 100000 nM in test [4] (1 mM benzylamine).
In the case of `NCC(Cn1ncn(-c2ccc(F)cc2)c1=O)=C(F)F` [Example 1, 2-[2-(aminomethyl)-3,3-difluoro-allyl]-4-(4-fluorophenyl)-1,2,4-triazol-3-one Trifluoroacetate], the IC50 is more than 10000 nM in test [1] (1 mM putrescine), more than 100000 nM in test [2] (0.5 mM tyramine), 2 nM in test [3] (setting [5]) and 39000 nM in test [4] (1 mM benzylamine).
Regarding `CCn1cc(-c2csc(Cn3cnn(CC(CN)=C(F)F)c3=O)c2)cn1` [Example 153, 2-[2-(aminomethyl)-3,3-difluoro-allyl]-4-[[4-(1-ethylpyrazol-4-yl)-2-thienyl]methyl]-1,2,4-triazol-3-one Trifluoroacetate], the IC50 in test [1] (1 mM putrescine) was 36000 nM; in test [2] (0.5 mM tyramine), more than 100000 nM; in test [3] (setting [5]) it was 1.3 nM; in test [4] (1 mM benzylamine), 29000 nM.
Turning to `COCCNc1ncc(-c2cnc(-n3cnn(CC(CN)=C(F)F)c3=O)c(C)c2)cn1` [Example 222, 2-[2-(aminomethyl)-3,3-difluoro-allyl]-4-[5-[2-(2-methoxyethylamino)pyrimidin-5-yl]-3-methyl-2-pyridyl]-1,2,4-triazol-3-one Trifluoroacetate], the IC50 was 4000 nM in test [1] (1 mM putrescine substrate), more than 100000 nM in test [2] (0.5 mM tyramine substrate), 1 nM in test [3] (setting [6]) and more than 100000 nM in test [4] (1 mM benzylamine substrate).
With `NCC(Cn1ncn(-c2ccc(-c3ccc4c(c3)OCO4)c(F)c2)c1=O)=C(F)F` [Example 28, 2-[2-(aminomethyl)-3,3-difluoro-allyl]-4-[4-(1,3-benzodioxol-5-yl)-3-fluoro-phenyl]-1,2,4-triazol-3-one Trifluoroacetate], the IC50 is 1600 nM in test [1] (1 mM putrescine), more than 100000 nM in test [2] (0.5 mM tyramine), 1.2 nM in test [3] (setting [5]) and 85 nM in test [4] (1 mM benzylamine).
